Experimental findings from US20170305922A1, “CARM1 INHIBITORS AND USES THEREOF” (Epizyme, Inc., priority 2014, published 2017) are described below.

For assay [1], the system named is asymmetric di-methyl PABP1 in RKO cells. The assay can be described thus: RKO methylation assay: In Cell Western (ICW) for asymmetric di-methyl PABP1 (PABP1me2a). The settings on record: Cellular-based (PABP1me2a) ICW (In Cell Western) assay. In outline:
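In-cell western on compound-exposed RKO cells (48 hours): asymmetric di-methyl PABP1 detected by antibody at 800 nm, DNA content by DRAQ5 at 700 nm. Percent inhibition from signal ratios against DMSO (minimum) and 20 μM reference compound (maximum) wells; IC50 curves fitted from triplicates.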

The target in the next assay is T1, Human CARM1 (PRMT4) (Homo sapiens, UniProt Q86X55).
T1 construct: Flag-CARM1-His was eluted with 200 ug/ml FLAG peptide in buffer A; made in house; host or cells: HEK 293F cells infected with recombinant baculovirus (pFastBacMam)
T1 sequence (Q86X55 1-585 isoform Q86X55-1): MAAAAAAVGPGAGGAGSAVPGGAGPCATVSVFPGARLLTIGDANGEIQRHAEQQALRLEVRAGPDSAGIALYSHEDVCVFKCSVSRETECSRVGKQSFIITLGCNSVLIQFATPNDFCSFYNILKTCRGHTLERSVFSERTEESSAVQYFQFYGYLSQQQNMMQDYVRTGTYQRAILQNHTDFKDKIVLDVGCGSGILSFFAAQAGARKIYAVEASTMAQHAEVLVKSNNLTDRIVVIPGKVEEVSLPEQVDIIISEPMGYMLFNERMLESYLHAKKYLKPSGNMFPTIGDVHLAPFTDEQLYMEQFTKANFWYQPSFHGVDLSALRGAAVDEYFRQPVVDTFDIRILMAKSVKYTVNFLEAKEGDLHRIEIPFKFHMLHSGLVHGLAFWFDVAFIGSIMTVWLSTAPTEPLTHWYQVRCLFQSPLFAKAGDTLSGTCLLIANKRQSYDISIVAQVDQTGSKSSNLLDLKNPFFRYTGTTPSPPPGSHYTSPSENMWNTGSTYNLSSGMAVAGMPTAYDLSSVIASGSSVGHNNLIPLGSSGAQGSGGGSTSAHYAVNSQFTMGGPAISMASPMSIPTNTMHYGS
The assay can be described thus: CARM1 enzyme assay on peptide substrates (3H-SAM Flashplate). As to conditions: Biochemical assay; CARM1 0.25 nM, 3H-SAM 30 nM, peptide 250 nM; read-out: Biochem IC50.

Each structure is given as a SMILES string.

As usually defined, the IC50 is the concentration that inhibits the measured activity by half. For the compound `CNC[C@@H](O)COc1ccc(Cl)c(-c2nc(-c3c(C)noc3C)c(C)c(N3CC4(CCC(OC)C4)C3)n2)c1` (some centres unmarked) [Example 263], the concentration for half-maximal inhibition (IC50) in assay [1] (Homo sapiens, RKO, 48 h) was 90.9 nM; at Human CARM1 (PRMT4), 5.36 nM.
For the compound `CNC[C@@H](O)COc1ccc(Cl)c(-c2nc(-c3c(C)noc3C)c(C)c(N3CC4(CN(CCC(F)(F)F)C4)C3)n2)c1` [Example 264], the IC50 in assay [1] (Homo sapiens, RKO, 48 h) amounted to 51.9 nM; on Human CARM1 (PRMT4), 4.11 nM.
For `CNC[C@@H](O)COc1ccc(Cl)c(-c2nc(-c3c(C)c(Cl)nn3C)c(C)c(N3CC4(CN(C(=O)OC)C4)C3)n2)c1` [Example 265], in that order: 87.7 nM and 4.2 nM.
For `CNC[C@@H](O)COc1ccc(Cl)c(-c2nc(-c3c(Br)cnn3C)c(C)c(N3CC4(CN(C(=O)OC)C4)C3)n2)c1` [Example 266], in that order: 310 nM and 6.83 nM.
For `CNC[C@@H](O)COc1ccc(Cl)c(-c2nc(-c3c(Br)cnn3C)c(C)c(N3CC4(CN(CC(F)(F)F)C4)C3)n2)c1` [Example 267], in that order: 121 nM and 8.97 nM.
`CNC[C@@H](O)COc1ccc(Cl)c(-c2nc(-c3c(C)noc3C)c(C)c(N3CC4(CC(N5CCC5)C4)C3)n2)c1` [Example 268]: the IC50 in assay [1] (Homo sapiens, RKO, 48 h) was found to be 1350 nM; on Human CARM1 (PRMT4) it was 1.26 nM.
For `CNC[C@@H](O)COc1ccc(Cl)c(-c2nc(-c3c(C)noc3C)c(C)c(N3CC4(CC(N5CC(OC)C5)C4)C3)n2)c1` [Example 269], in that order: 355 nM and 0.8 nM.
Consider `CNC[C@@H](O)COc1ccc(Cl)c(-c2nc(-c3c(C)noc3C)c(C)c(N3CC4(CC(N5CCOCC5)C4)C3)n2)c1` [Example 270], for which the 50% inhibitory concentration (IC50) turned out to be 269 nM in assay [1] (Homo sapiens, RKO, 48 h) and 4.95 nM at Human CARM1 (PRMT4).
With `CNC[C@@H](O)COc1ccc(Cl)c(-c2nc(-c3c(C)noc3C)c(C)c(N3CC4(CC(N(C)CC(F)(F)F)C4)C3)n2)c1` [Example 271], the IC50 in assay [1] (Homo sapiens, RKO, 48 h) amounted to 89.1 nM; on Human CARM1 (PRMT4) it was 7.42 nM.
On to `CNC[C@@H](O)COc1ccc(Cl)c(-c2nc(-c3c(C)noc3C)c(C)c(N3CC4(C3)CC(OC)(OC)C4)n2)c1` [Example 272], for which the IC50 came to 79 nM in assay [1] (Homo sapiens, RKO, 48 h) and 5.43 nM at Human CARM1 (PRMT4).
As to `CNC[C@@H](O)COc1ccc(Cl)c(-c2nc(-c3c(C)noc3C)c(C)c(N3Cc4ccc(OCC(F)F)nc4C3)n2)c1` [Example 273], the IC50 was 61.9 nM in assay [1] (Homo sapiens, RKO, 48 h) and 2.26 nM on Human CARM1 (PRMT4).
On the same counts, the results for `CNC[C@@H](O)COc1ccc(Cl)c(-c2nc(-c3c(C)c(Cl)nn3C)c(C)c(N3CC4(CC(OC(C)C)C4)C3)n2)c1` [Example 274] are 48.8 nM and 5.03 nM.
Regarding `CNC[C@@H](O)COc1ccc(Cl)c(-c2nc(-c3c(C)c(Br)nn3C)c(C)c(N3CC4(CC(OC(C)C)C4)C3)n2)c1` [Example 275], the IC50 in assay [1] (Homo sapiens, RKO, 48 h) turned out to be 45 nM; at Human CARM1 (PRMT4), 3.53 nM.
In the case of `CNC[C@@H](O)COc1ccc(Cl)c(-c2nc(-c3c(C)noc3C)c(C)c(N3CC4(C3)CC3(C4)OCCO3)n2)c1` [Example 276], the IC50 in assay [1] (Homo sapiens, RKO, 48 h) is 75.7 nM; on Human CARM1 (PRMT4), 4.92 nM.
For `CNC[C@@H](O)COc1ccc(Cl)c(-c2nc(-c3c(C)noc3C)c(C)c(N3CC4(CN(CCC#N)C4)C3)n2)c1` [Example 277], in that order: 1470 nM and 8.24 nM.
For `CNC[C@@H](O)COc1ccc(Cl)c(-c2nc(-c3c(C)noc3C)c(C)c(N3CC4(CCC4F)C3)n2)c1` (some centres unmarked) [Example 278], in that order: 544 nM and 4.11 nM.
For `CNC[C@@H](O)COc1ccc(Cl)c(-c2nc(-c3c(C)noc3C)c(C)c(N3CC4(CC(N5CC(F)(F)C5)C4)C3)n2)c1` [Example 279], in that order: 54.2 nM and 5.75 nM.
For the compound `CNC[C@@H](O)COc1ccc(Cl)c(-c2nc(-c3c(C)noc3C)c(C)c(N3CC4(CC(N5CC(F)C5)C4)C3)n2)c1` [Example 280], the IC50 in assay [1] (Homo sapiens, RKO, 48 h) amounted to 105 nM; at Human CARM1 (PRMT4), 2.09 nM.
On the same counts, the results for `CNC[C@@H](O)COc1ccc(Cl)c(-c2nc(-c3c(C)noc3C)c(C)c(N3CC4(CC(N(C)C5CC5)C4)C3)n2)c1` [Example 281] are 79.2 nM and 1.04 nM.
For `CNC[C@@H](O)COc1ccc(Cl)c(-c2nc(-c3c(C)noc3C)c(C)c(N3CC4(CC(NC)C4)C3)n2)c1` [Example 282], in that order: 2210 nM and 0.9 nM.
For `CNC[C@@H](O)COc1ccc(Cl)c(-c2nc(-c3c(C)noc3C)c(C)c(N3CC4(C3)CN(C(C)C(F)(F)F)C4)n2)c1` (some centres unmarked) [Example 283], in that order: 48.4 nM and 5.67 nM.
On to `CNC[C@@H](O)COc1ccc(Cl)c(-c2nc(-c3c(C)c(Br)nn3C)c(C)c(N3CC4(CN(CC(F)F)C4)C3)n2)c1` [Example 284], for which the IC50 in assay [1] (Homo sapiens, RKO, 48 h) was determined as 39.2 nM; on Human CARM1 (PRMT4) it was 2.36 nM.
On the same counts, the results for `CNC[C@@H](O)COc1ccc(Cl)c(-c2nc(-c3c(C)c(Cl)nn3C)c(C)c(N3CC4(CN(CC(F)F)C4)C3)n2)c1` [Example 285] are 46.1 nM and 2.4 nM.
For `CNC[C@@H](O)COc1ccc(Cl)c(-c2nc(-c3c(C)noc3C)c(C)c(N3CC(C#N)(COC)C3)n2)c1` [Example 286], in that order: 282 nM and 4.17 nM.
On the same counts, the results for `CNC[C@@H](O)COc1ccc(Cl)c(-c2nc(-c3c(C)noc3C)c(C)c(N3CC4(CC(OCCC#N)C4)C3)n2)c1` [Example 287] are 69.1 nM and 4.46 nM.
Regarding `CNC[C@@H](O)COc1ccc(Cl)c(-c2nc(-c3c(C)noc3C)c(C)c(N3CC4(CCC4OC)C3)n2)c1` (some centres unmarked) [Example 288], the IC50 in assay [1] (Homo sapiens, RKO, 48 h) stood at 234 nM; at Human CARM1 (PRMT4) it was 3.86 nM.
On the same counts, the results for `CNC[C@@H](O)COc1ccc(Cl)c(-c2nc(-c3c(C)noc3C)c(C)c(N3CC4(CC(N(C)CC(F)F)C4)C3)n2)c1` [Example 289] are 76 nM and 4.08 nM.
Regarding `CNC[C@@H](O)COc1ccc(Cl)c(-c2nc(-c3c(C)noc3C)c(C)c(N3CC4(CC(OCC(F)F)C4)C3)n2)c1` [Example 290], the IC50 in assay [1] (48 hours) was 38.2 nM; at Human CARM1 (PRMT4), 3.39 nM.
On to `CNC[C@H](O)COc1ccc(Cl)c(-c2nc(-c3c(C)noc3C)c(C)c(N3Cc4cccnc4C3)n2)c1` [Example 293], for which the IC50 in assay [1] (Homo sapiens, RKO, 48 h) is 155 nM; on Human CARM1 (PRMT4), 1.42 nM.
On the same counts, the results for `CNC[C@@H](O)COc1ccc(Cl)c(-c2nc(-c3c(C)c(Cl)nn3C)c(C)c(N3CC4(CCCN(C(=O)OC)C4)C3)n2)c1` [Example 295] are 82.7 nM and 3.78 nM.
On the same counts, the results for `CNC[C@@H](O)COc1ccc(Cl)c(-c2nc(-c3c(C)noc3C)c(C)c(N3CC4(CCCN(C(=O)OC)C4)C3)n2)c1` [Example 296] are 137 nM and 6.4 nM.
For `CNC[C@@H](O)COc1ccc(Cl)c(-c2nc(-c3c(C)c(Br)nn3C)c(C)c(N3CC4(CC(OCCC#N)C4)C3)n2)c1` [Example 297], in that order: 39.4 nM and 2.83 nM.
In the case of `CNC[C@@H](O)COc1ccc(Cl)c(-c2nc(-c3c(C)c(Br)nn3C)c(C)c(N3CC4(CN(CCC#N)C4)C3)n2)c1` [Example 298], the IC50 in assay [1] (Homo sapiens, RKO, 48 h) worked out at 244 nM; on Human CARM1 (PRMT4) it was 3.11 nM.
For `CNC[C@@H](O)COc1ccc(Cl)c(-c2nc(-c3c(Cl)cnn3C)c(C)c(N3Cc4cnc(N5CC(OC)C5)nc4C3)n2)c1` [Example 299], in that order: 17.6 nM and 2.94 nM.
On the same counts, the results for `CNC[C@@H](O)COc1ccc(Cl)c(-c2nc(-c3c(C)noc3C)c(C)c(N3CC4(CCCN(CC(F)(F)F)C4)C3)n2)c1` [Example 301] are 125 nM and 7.99 nM.
For `CNC[C@@H](O)COc1ccc(Cl)c(-c2nc(-c3c(C)noc3C)c(C)c(N3CC4(CCCN(C(=O)OCC(F)F)C4)C3)n2)c1` [Example 302], in that order: 70.2 nM and 5.18 nM.
For the compound `CNC[C@@H](O)COc1ccc(Cl)c(-c2nc(-c3c(C)c(Br)nn3C)c(C)c(N3CC4(CC(OCC(F)F)C4)C3)n2)c1` [Example 303], the IC50 in assay [1] (Homo sapiens, RKO, 48 h) was 37.6 nM; on Human CARM1 (PRMT4), 5.91 nM.
On the same counts, the results for `CNC[C@@H](O)COc1ccc(Cl)c(-c2nc(-c3c(C)c(Br)nn3C)c(C)c(N3CC(CCl)(CNCC(F)(F)F)C3)n2)c1` [Example 304] are 142 nM and 6.81 nM.
As for `CNC[C@@H](O)COc1ccc(Cl)c(-c2nc(-c3c(C)c(Br)nn3C)c(C)c(N3CC4(CN(CC(F)(F)F)C4)C3)n2)c1` [Example 305], the figures for the IC50 (in assay [1] (48 hours); at Human CARM1 (PRMT4)) were 27.7 nM and 8.35 nM, respectively.
For `CNC[C@@H](O)COc1ccc(Cl)c(-c2nc(-c3c(C)noc3C)c(C)c(N3CC4(CC(C#N)C4)C3)n2)c1` [Example 306], the IC50 in assay [1] (Homo sapiens, RKO, 48 h) is 173 nM; on Human CARM1 (PRMT4) it was 6.52 nM.
